Assay results published in US8227604B2, “Hybrid 2-aminotetralin and aryl-substituted piperazine compounds and their use in altering CNS activity” (Wayne State University, priority 2001, dated 2012).
Structures can show the parent of a compound that is named as a salt. One block for each compound: values may come before it.

Columns and labels:
5HT2A receptor = target: T1, 5HT2A receptor (Homo sapiens, UniProt P28223); test: Binding affinity at cloned human 5HT2A receptor, [3H]Ketanserin
T1 construct: expressed in transfected cells
T1 sequence (P28223 whole entry): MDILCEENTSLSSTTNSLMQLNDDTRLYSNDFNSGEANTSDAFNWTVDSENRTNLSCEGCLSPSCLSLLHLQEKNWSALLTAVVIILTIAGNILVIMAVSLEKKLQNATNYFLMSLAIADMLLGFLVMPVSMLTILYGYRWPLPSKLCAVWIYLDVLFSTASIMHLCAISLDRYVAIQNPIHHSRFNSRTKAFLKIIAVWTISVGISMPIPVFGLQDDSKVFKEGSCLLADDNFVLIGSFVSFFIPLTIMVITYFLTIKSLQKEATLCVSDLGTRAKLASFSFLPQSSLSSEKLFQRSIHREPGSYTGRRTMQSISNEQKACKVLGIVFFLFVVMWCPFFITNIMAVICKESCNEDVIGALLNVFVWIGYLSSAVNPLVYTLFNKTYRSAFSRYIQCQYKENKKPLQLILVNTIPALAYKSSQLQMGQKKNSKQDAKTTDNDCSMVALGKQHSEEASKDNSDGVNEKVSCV

D4 receptor [1] = target: T2, D4 receptor (Homo sapiens, UniProt P21917); test: Agonist potency by [3H]thymidine incorporation (mitogenesis), D4; assay type: cell-based; design: expressed in transfected cells
T2 sequence (P21917 1-419): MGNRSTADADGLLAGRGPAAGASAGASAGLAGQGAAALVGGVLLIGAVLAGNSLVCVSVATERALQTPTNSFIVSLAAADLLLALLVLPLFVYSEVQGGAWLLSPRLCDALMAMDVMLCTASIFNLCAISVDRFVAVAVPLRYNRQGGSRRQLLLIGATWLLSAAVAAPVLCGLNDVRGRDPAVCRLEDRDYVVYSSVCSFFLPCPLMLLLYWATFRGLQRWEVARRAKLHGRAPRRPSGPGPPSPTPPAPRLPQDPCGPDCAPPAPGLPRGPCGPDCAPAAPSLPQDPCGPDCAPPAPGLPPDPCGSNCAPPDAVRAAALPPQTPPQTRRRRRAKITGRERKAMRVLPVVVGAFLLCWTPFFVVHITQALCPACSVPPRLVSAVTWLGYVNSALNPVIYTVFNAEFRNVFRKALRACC
Description: (§1) Potential as domaminergenic agonists was assayed by ^3H-thymidine incorporation by standard techniques.
The mitogenesis study results presented in Table 7 assay the ability of these ligands to act as agonists or antagonists. The EC50 values thus indicate intrinsic activities or functional activities of these compounds. The value of % maximum stimulation indicates whether a compound is a partial agonist or full agonist. Generally, a value greater than 80% is considered as a full agonist and anything less than 80% is considered as a partial agonist. A compound will be considered antagonist if it produces a negative result (no [3H]thymidine incorporation) in the assay. All the compounds reported in Table 7 are either full agonists or partial agonists.

D1 receptor = target: T3, D1 receptor (Homo sapiens, UniProt P21728); test: Binding affinity at cloned human D1 receptor, [3H]SCH23390 (LHD1 cells)
T3 construct: expressed in transfected cells; host or cells: LHD1 cells
T3 sequence (P21728 whole entry): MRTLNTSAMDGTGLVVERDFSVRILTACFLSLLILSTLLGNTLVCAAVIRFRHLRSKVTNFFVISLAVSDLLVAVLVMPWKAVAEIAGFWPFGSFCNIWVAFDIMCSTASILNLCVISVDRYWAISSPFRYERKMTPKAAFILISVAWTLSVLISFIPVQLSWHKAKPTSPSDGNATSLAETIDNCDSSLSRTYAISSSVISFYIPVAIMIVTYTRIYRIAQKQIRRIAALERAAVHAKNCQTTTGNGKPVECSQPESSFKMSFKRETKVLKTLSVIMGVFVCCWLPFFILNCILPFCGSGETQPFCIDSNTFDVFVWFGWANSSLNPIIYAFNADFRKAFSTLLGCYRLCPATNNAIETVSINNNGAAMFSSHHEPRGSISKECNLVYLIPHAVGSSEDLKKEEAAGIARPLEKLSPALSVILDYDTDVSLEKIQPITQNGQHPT
Description: LHD1 cells (human receptor) are grown and prepared as described for the HA7 cells as described hereafter. The final pellet is resuspended at 5 mg protein/80 ml in 50 mM Tris-HCl containing 120 mM of NaCl, 5 mM of KCl, 2 mM of CaCl2, and 1 mM of MgCl2, pH 7.4. To wells containing 100 μl of test drug or buffer and […] of [^3H]SCH 23390 (0.18 nM final conc.), is added 0.8 ml of cell homogenate (0.05 mg protein/well), and the plates are incubated at […] for 60 min. Nonspecific binding is determined with 1 μM of SCH 23390.

D2 receptor = target: T4, D2 receptor (Homo sapiens, UniProt P14416); test: Agonist potency by [3H]thymidine incorporation (mitogenesis), D2; assay type: cell-based; conditions: read-out: D2 % Maxm Stim
T4 construct: expressed in transfected cells
T4 sequence (P14416 whole entry): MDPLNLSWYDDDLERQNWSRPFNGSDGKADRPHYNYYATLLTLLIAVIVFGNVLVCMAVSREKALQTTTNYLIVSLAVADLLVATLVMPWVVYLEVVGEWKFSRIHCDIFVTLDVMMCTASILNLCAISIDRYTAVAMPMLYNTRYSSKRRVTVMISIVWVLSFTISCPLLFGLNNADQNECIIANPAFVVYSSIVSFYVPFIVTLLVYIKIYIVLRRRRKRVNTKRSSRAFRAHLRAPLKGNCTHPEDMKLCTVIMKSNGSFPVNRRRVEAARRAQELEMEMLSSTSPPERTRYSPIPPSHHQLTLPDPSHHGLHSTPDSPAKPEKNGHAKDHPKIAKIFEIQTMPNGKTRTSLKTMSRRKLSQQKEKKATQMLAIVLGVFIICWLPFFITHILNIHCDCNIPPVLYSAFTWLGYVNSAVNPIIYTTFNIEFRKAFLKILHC
Description: as §1
The EC50 values thus indicate intrinsic activities or functional activities of these compounds. The value of % maximum stimulation indicates whether a compound is a partial agonist or full agonist. Generally, a value greater than 80% is considered as a full agonist and anything less than 80% is considered as a partial agonist.

D4 receptor [2] = target: T2, D4 receptor; test: Binding affinity at cloned human D4 receptor, [3H]YM-09151-2 (CHO D4.4 cells); design: expressed in transfected cells; host or cells: CHO D4.4 cells
Description: CHO D4.4 cells (human receptors) are grown to confluence in D4 Puromycin medium containing 2 μg/ml puromycin, 5% fetal calf serum and 5 supplemented calf serum and 0.5% pen-strep. The cells are harvested as described for D2 and D3 cells and used at a concentration of 0.15 mg protein/well in the [^3H]YM-09151-2 binding assay.

5HT1A receptor = target: T5, 5HT1A receptor (Homo sapiens, UniProt P08908); test: Binding affinity at cloned human 5HT1A receptor, [3H]8-OH-DPAT (HA7 cells)
T5 construct: expressed in transfected cells; host or cells: HA7 cells
T5 sequence (P08908 1-422): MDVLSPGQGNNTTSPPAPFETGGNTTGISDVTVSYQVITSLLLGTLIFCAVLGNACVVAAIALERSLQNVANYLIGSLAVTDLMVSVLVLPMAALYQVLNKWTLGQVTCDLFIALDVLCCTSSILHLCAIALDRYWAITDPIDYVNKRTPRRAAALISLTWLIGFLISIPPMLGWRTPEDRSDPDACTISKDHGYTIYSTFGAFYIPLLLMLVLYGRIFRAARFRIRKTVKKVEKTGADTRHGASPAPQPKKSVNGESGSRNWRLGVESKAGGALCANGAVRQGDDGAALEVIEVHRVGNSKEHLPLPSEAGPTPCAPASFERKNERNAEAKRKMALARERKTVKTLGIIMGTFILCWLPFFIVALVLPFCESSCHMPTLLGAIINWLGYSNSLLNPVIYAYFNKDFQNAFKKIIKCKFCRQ
Description: HA7 cells (human receptor) are grown to confluence in DMEM containing 10% fetal calf serum, 0.05% penicillin-streptomycin (pen-strep), and […] of G418. The cells are scraped from the 100 by 20 mm plates and centrifuged at 500·G for 5 min. The pellet is homogenized in 50 mM Tris-HCl, pH 7.7, with a polytron, centrifuged at 27,000·G and resuspended at 10 mg protein/ml in the same buffer. The homogenate is then stored at −70° C. in 1-ml aliquots.
The thawed cells are washed once and resuspended at 10 mg protein/80 ml in 25 mM Tris-HCl containing 100 μM of ascorbic acid and 10 mM of nialamide at pH 7.4. The assay is performed in triplicate in a 96-well plate. To 100 μl of [^3H]8-OH-DPAT (0.5 nM final conc), […] of test compound or buffer and 0.8 ml of cell homogenate (0.1 mg protein/well) is added to each well by a Tomtec Quadra 96. Nonspecific binding is defined using 1 μM dihydroergotamine. The plates are incubated at 25° C. for 60 min, then filtered. The incubation is terminated by rapid filtration through glass fiber filter paper on a Tomtec cell harvester. The filters are washed four times with ice-cold 50 mM Tris-HCl, pH 7.7, dried overnight, bagged with 10 ml scintillation cocktail before counting for 2 min. on a Wallac Betaplate 1205 liquid scintillation counter.

5HT2C receptor = target: T6, 5HT2C receptor (Homo sapiens, UniProt P28335); test: Binding affinity at cloned human 5HT2C receptor, [3H]Mesulergine
T6 construct: expressed in transfected cells
T6 sequence (P28335 33-458): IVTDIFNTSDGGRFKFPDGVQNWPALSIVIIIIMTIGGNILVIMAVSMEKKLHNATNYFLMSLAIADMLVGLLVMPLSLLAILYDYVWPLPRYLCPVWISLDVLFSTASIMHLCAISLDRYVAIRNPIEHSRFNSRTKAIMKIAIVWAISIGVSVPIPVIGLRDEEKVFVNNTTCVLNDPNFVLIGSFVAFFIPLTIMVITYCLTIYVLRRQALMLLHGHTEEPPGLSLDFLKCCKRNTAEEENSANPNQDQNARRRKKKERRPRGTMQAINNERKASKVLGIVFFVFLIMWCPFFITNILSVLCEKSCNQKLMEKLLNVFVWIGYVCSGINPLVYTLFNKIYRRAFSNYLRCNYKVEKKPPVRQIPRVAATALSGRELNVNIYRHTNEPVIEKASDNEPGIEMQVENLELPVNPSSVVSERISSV

D2L receptor = target: T7, D2L receptor (Homo sapiens, UniProt P14416); test: Inhibition constants for binding to cloned D2L receptor expressed in HEK cells, [3H]spiperone
T7 construct: expressed in transfected cells; host or cells: HEK cells
T7 sequence (P14416 whole entry): as the sequence (P14416 whole entry) above
Description: (§2) Inhibition constants for binding to cloned D2L and D3 receptors expressed in HEK cells by displacing [^3H] spiperone were measured for several compounds.

D3 receptor = D3 receptor (Homo sapiens, UniProt P35462); test: Inhibition constants for binding to cloned D3 receptor expressed in HEK cells, [3H]spiperone
Sequence of D3 receptor (P35462 whole entry): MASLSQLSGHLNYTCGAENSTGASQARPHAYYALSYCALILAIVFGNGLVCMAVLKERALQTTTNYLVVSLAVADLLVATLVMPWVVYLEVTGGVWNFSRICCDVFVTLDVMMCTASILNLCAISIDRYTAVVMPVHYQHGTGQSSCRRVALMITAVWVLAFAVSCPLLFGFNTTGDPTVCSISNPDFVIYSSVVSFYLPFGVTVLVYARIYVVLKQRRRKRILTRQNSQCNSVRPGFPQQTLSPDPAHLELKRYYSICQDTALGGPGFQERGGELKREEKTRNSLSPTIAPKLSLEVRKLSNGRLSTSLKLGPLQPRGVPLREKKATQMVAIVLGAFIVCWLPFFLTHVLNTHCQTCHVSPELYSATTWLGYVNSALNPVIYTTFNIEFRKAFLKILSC
Description: as §2

Ki (5HT2A receptor): 260 ± 41.9 nM
EC50 (D4 receptor [1]; [3H]thymidine incorporation): 23.9 ± 3.57 nM
D4 % Maxm Stim (D4 receptor [1]; [3H]thymidine incorporation, >80% full agonist): 85.15 ± 17.64%
agonist character at the D4 receptor (D4 receptor [1]; functional assay): full agonists
Ki (D1 receptor): 677 ± 34 nM
Emax (D2 receptor): 85 ± 6.26%
affinity at the D4 receptor (D4 receptor [2]): good affinity
Ki (D4 receptor [2]; cloned human D4): 28.9 ± 4.41 nM
Ki (5HT1A receptor): 15.2 ± 3.34 nM
Ki (5HT2C receptor): 3220 ± 52.9 nM
Structure (SMILES): C#CCN(CCCCN1CCN(c2ccccc2)CC1)C1CCc2ccc(O)cc2C1 (stereo not drawn) [Compound 12b, 7-Hydroxy-2-[N-propargyl-(N-(4-phenylpiperazin-1-yl)-butyl)amino]tetralin]

melting point: 152 to 156 °C
Structure (SMILES): CCCN(CCCCN1CCN(c2ccccc2)CC1)C1CCc2ccc(O)cc2C1 (stereo not drawn) (as salt: HBr) [Compound 15b, 7-Hydroxyl-2-[N-propyl-(N-(4-phenylpiperazin-1-yl)-butyl)amino]tetralin]

melting point: 97 to 102 °C
Structure (SMILES): CCCN(CCN1CCN(c2ccccc2)CC1)C1CCc2nc(N)ncc2C1 (stereo not drawn) (as salt: HCl) [Compound 23, 2-Amino-6-[N-propyl-(N-(4-phenylpiperazin-1-yl)-ethyl)amino]-5,6,7,8-tetrahydrobenzopyrimidine]

Structure (SMILES): CCCN(CCC)C1CCc2ccc(O)cc2C1 (stereo not drawn) [Compound 7-OH-DPAT, reference compound]
Ki (5HT2A receptor): > 10000 nM
Ki (D1 receptor): 2550 ± 1080 nM
Ki (5HT1A receptor): 193 ± 3.4 nM
Ki (5HT2C receptor): > 10000 nM

melting point: 224 to 226 °C
Structure (SMILES): CCCN(CCc1ccc(NS(=O)(=O)c2ccc(Cl)cc2)cc1)CCN1CCN(c2ccccc2)CC1 (as salt: hydrochloride) [Compound 30a, 4-Chloro-N-[4-(2-{[2-(4-phenyl-piperazin-1-yl)-ethyl]-propyl-amino}-ethyl)-phenyl]-benzenesulfonamide]

melting point: 155 to 159 °C
Structure (SMILES): CCCN(CCCCN1CCN(c2cccc(Cl)c2Cl)CC1)C1CCc2ccc(O)cc2C1 (stereo not drawn) (as salt: HCl) [Compound 19a, 7-Hydroxy-2-[N-propyl-(N-(4-(2,3-dichlorophenyl)-piperazin-1-yl)-butyl)amino]tetralin]

melting point: 180 to 183 °C
Structure (SMILES): C#CCN(CCCCN1CCN(c2cccc(Cl)c2Cl)CC1)C1CCc2ccc(O)cc2C1 (stereo not drawn) (as salt: HCl) [Compound 19b, 7-Hydroxy-2-[N-propargyl-(N-(4-(2,3-dichlorophenyl)-piperazin-1-yl)-butyl)amino]tetralin]

melting point: 278 to 284 °C
Structure (SMILES): CCCN(CCc1cccc(N)c1)CCN1CCN(c2ccccc2)CC1 (as salt: hydrochloride) [Compound 29b, 3-(2-{[2-(4-Phenyl-piperazin-1-yl)-ethyl]-propyl-amino}-ethyl)-phenylamine]

melting point: 220 to 224 °C
Structure (SMILES): CCCN(CCc1cccc(NS(=O)(=O)c2ccc(Cl)cc2)c1)CCN1CCN(c2ccccc2)CC1 (as salt: hydrochloride) [Compound 30b, 4-Chloro-N-[3-(2-{[2-(4-phenyl-piperazin-1-yl)-ethyl]-propyl-amino}-ethyl)-phenyl]-benzenesulfonamide]

Ki (D2L receptor): 1120 ± 144 nM
Structure (SMILES): CCCN(CCN1CCN(c2ccccc2)CC1)C1CCc2nc(N)ncc2C1 (stereo not drawn) [Compound 23, 2-Amino-6-[N-propyl-(N-(4-phenylpiperazin-1-yl)-ethyl)amino]-5,6,7,8-tetrahydrobenzopyrimidine]

Structure (SMILES): CCCN(CCN1CCN(c2ccccc2)CC1)C1CCc2sc(N)nc2C1 (stereo not drawn) [Compound 25, 2-Amino-5-[N-propyl-(N-(4-phenylpiperazin-1-yl)-ethyl)amino]-4,5,6,7-tetrahydrobenzothiazole]
Ki (D2L receptor): 2080 ± 162 nM
Ki (D3 receptor; D3 expressed in HEK cells): 4.14 ± 0.55 nM
D2L/D3 (D3 receptor; ratio of Ki D2L to Ki D3, HEK cells, [3H]spiperone): 502

melting point: 262 to 264 °C
Structure (SMILES): CCCN(CCc1ccc(N)cc1)CCN1CCN(c2ccccc2)CC1 (as salt: hydrochloride) [Compound 29a, 4-(2-{[2-(4-Phenyl-piperazin-1-yl)-ethyl]-propyl-amino}-ethyl)-phenylamine]

melting point: 182 to 186 °C
Structure (SMILES): C#CCN(CCCCN1CCN(c2ccccc2)CC1)C1CCc2ccc(O)cc2C1 (stereo not drawn) (as salt: HBr) [Compound 12b, 7-Hydroxy-2-[N-propargyl-(N-(4-phenylpiperazin-1-yl)-butyl)amino]tetralin]
